Measured values: patent publication US7989422B2, “Antibacterial agents” (Alchemia Limited, priority 2005, dated 2011)

Assays:
Assay type in all cases: cell-based
[1] = system: Staphylococcus aureus ATCC 25923; experiment: MIC against S. aureus, microbroth dilution in MH broth, without or with 5% horse serum; conditions: MIC class; S. aureus ATCC 25923
Procedure: (§1) Testing was conducted to determine the in vitro antimicrobial activity of a series of compounds synthesised by Alchemia Pty Ltd. The antimicrobial activity of each compound was determined at a single concentration (128 μg/mL) in Mueller Hinton (MH) broth against the ATCC type strain of Staphylococcus aureus. […] Compounds showing activity at concentrations up to 32-64 μg/mL in the presence/absence of serum were then tested for MIC activity against a standard set of 5 microorganisms comprising of ATCC type strains of MRSA, Enterococcus faecalis, Enterococcus faecium, VRE and Escherichia coli. CLSI (formerly NCCLS) microbroth dilution technique was used.
(§2) Each compound is initially dissolved in 100 μL of DMSO. Each solution is then diluted further in 0.9 mL of sterile MH broth to give a total volume of 1 mL (1000 μg/mL) This stock solution is then further diluted in MH broth to give a test solution with final concentration of 128 μg/mL using the following formula: 0.5 ml stock in 3.4 ml MH broth
(§3) Each test organism was subcultured from the −70° C. deep freezer onto horse blood agar. The plates were streaked to obtain isolated colonies and incubated at 35° C. in non-CO2 incubator for 24 hours. A second subculture was carried out onto horse blood agar. For each test organism, 1-2 colonies were selected from an 18-24 hour culture and inoculated into 2 ml sterile MH broth. The turbidity was adjusted to 0.5 McFarland standard.
(§4) A 1:10 dilution in MH broth (200 μL in 2 ml MH) of the 0.5 McFarland control was prepared. 5 μL of this diluted solution was used to inoculate the trays.
100 μL of sterile MH broth was added in columns 2-12. 200 μL of test solution was added in column 1. 100 μL was transferred in column 2 giving a ½ dilution. 100 μL from column 2 was then transferred to column 3 (¼ dilution). This dilution was carried on until column 12. A second tray containing the same test solution was inoculated in a similar manner using sterile MH broth with 5% heat inactivated horse serum. 5 μL of organism solution was then added to each well. The plates were then sealed and incubated at 35° C. in a non-CO2 incubator for 18-24 hours. The plates were examined for growth after the incubation time.
(§5) If the test organism is sensitive to the compound in the broth the growth will be inhibited. Similarly, if the organism grows on the antibiotic containing medium then it is resistant to this particular antibiotic.

[2] = system: Staphylococcus aureus (MRSA) ATCC 33591; experiment: MIC against MRSA, microbroth dilution; conditions: MIC class
Procedure: as §1, §2, §3, §4
(§6) The trays were prepared in a similar way as mentioned above and incubated at 35° C. in a non-CO2 incubator for 18-24 hours. The plates were examined for growth after the incubation time.
(§7) After 18-24 hour incubation 5 μL from each well was then inoculated onto horse blood agar and incubated for 18-24 hours at 35° C. in a non-CO2 incubator.
as §5

[3] = system: Enterococcus faecium ATCC 35667; experiment: MIC against E. faecium, microbroth dilution; conditions: MIC class
Procedure: as §1, §2, §3, §4, §6, §7, §5

E. Faecium 51299 VanB = experiment: MIC against vancomycin-resistant enterococcus 51299 (VanB), microbroth dilution; conditions: MIC class; ATCC 51299 VanB
Procedure: as §1, §2, §3, §4, §6, §7, §5

[4] = system: Enterococcus faecalis ATCC 29212; experiment: MIC against E. faecalis, microbroth dilution; conditions: MIC class
Procedure: as §1, §2, §3, §4, §6, §7, §5

Nc1nc2cc(C(F)(F)F)cc(Cl)c2n1C1COC(CO)C(NC(=O)c2ccc(-c3ccccc3)cc2)C1O (stereo not shown) [Compound 155]
S. Aureus 25923 activity [1]: + (“+”: MIC (μg/mL): 64 ≧ MIC > 16) | S. Aureus 33591 MRSA activity [2]: + (“+”: MIC (μg/mL): 64 ≧ MIC > 16) | E. Faecium 35667 activity [3]: − (“−”: MIC (μg/mL): MIC > 64) | E. Faecium 51299 VanB activity (E. Faecium 51299 VanB): − (“−”: MIC (μg/mL): MIC > 64) | E. Fecalis 29212 activity [4]: − (“−”: MIC (μg/mL): MIC > 64)

NC(C(=O)Nc1nc2cc(C(F)(F)F)ccc2n1C1C(CO)OCC(NC(=O)Nc2ccc(Cl)c(C(F)(F)F)c2)C1O)c1ccc(-c2ccccc2)cc1 (stereo not shown) [Compound 236]
S. Aureus 25923 activity [1]: − (“−”: MIC (μg/mL): MIC > 64) | S. Aureus 33591 MRSA activity [2]: ++ (“++”: MIC (μg/mL): MIC ≦ 16) | E. Faecium 35667 activity [3]: ++ (“++”: MIC (μg/mL): MIC ≦ 16) | E. Faecium 51299 VanB activity (E. Faecium 51299 VanB): + (“+”: MIC (μg/mL): 64 ≧ MIC > 16) | E. Fecalis 29212 activity [4]: ++ (“++”: MIC (μg/mL): MIC ≦ 16)

O=C(Nc1ccc(Cl)c(C(F)(F)F)c1)NC1COC(CO)C(n2c(Nc3ccc(-c4ccccc4)cc3)nc3cc(C(F)(F)F)cc(Cl)c32)C1O (stereo not shown) [Compound 254]
S. Aureus 25923 activity [1]: ++ (“++”: MIC (μg/mL): MIC ≦ 16) | S. Aureus 33591 MRSA activity [2]: ++ (“++”: MIC (μg/mL): MIC ≦ 16) | E. Faecium 35667 activity [3]: − (“−”: MIC (μg/mL): MIC > 64) | E. Faecium 51299 VanB activity (E. Faecium 51299 VanB): − (“−”: MIC (μg/mL): MIC > 64) | E. Fecalis 29212 activity [4]: − (“−”: MIC (μg/mL): MIC > 64)

CCCCCC(C)CCC(=O)NC1C(CO)OCC(n2c(N)nc3cc(C(F)(F)F)cc(Cl)c32)C1O (stereo not shown) [Compound 179]
S. Aureus 25923 activity [1]: + (“+”: MIC (μg/mL): 64 ≧ MIC > 16) | S. Aureus 33591 MRSA activity [2]: − (“−”: MIC (μg/mL): MIC > 64) | E. Faecium 35667 activity [3]: − (“−”: MIC (μg/mL): MIC > 64) | E. Faecium 51299 VanB activity (E. Faecium 51299 VanB): − (“−”: MIC (μg/mL): MIC > 64) | E. Fecalis 29212 activity [4]: − (“−”: MIC (μg/mL): MIC > 64)

Nc1ccccc1OC1C(NC(=O)Nc2ccc(Cl)c(C(F)(F)F)c2)COC(CO)C1NC(=O)C(N)Cc1ccc(-c2ccccc2)cc1 (single isomer, unassigned) [Compound 71]
S. Aureus 25923 activity [1]: ++ (“++”: MIC (μg/mL): MIC ≦ 16) | S. Aureus 33591 MRSA activity [2]: ++ (“++”: MIC (μg/mL): MIC ≦ 16) | E. Faecium 35667 activity [3]: ++ (“++”: MIC (μg/mL): MIC ≦ 16) | E. Faecium 51299 VanB activity (E. Faecium 51299 VanB): + (“+”: MIC (μg/mL): 64 ≧ MIC > 16) | E. Fecalis 29212 activity [4]: + (“+”: MIC (μg/mL): 64 ≧ MIC > 16)

O=C(Nc1ccc(Cl)c(C(F)(F)F)c1)NC1COC(CO)C(n2c(NCc3ccc4ccccc4c3)nc3cc(C(F)(F)F)ccc32)C1O (stereo not shown) [Compound 251]
S. Aureus 25923 activity [1]: ++ (“++”: MIC (μg/mL): MIC ≦ 16) | S. Aureus 33591 MRSA activity [2]: ++ (“++”: MIC (μg/mL): MIC ≦ 16) | E. Faecium 35667 activity [3]: ++ (“++”: MIC (μg/mL): MIC ≦ 16) | E. Faecium 51299 VanB activity (E. Faecium 51299 VanB): ++ (“++”: MIC (μg/mL): MIC ≦ 16) | E. Fecalis 29212 activity [4]: ++ (“++”: MIC (μg/mL): MIC ≦ 16)

Nc1cc(C(F)(F)F)cc(Cl)c1NC1COC(CO)C(NC(=O)C(N)Cc2ccc(-c3ccccc3)cc2)C1O (stereo not shown) [Compound 202]
S. Aureus 25923 activity [1]: + (“+”: MIC (μg/mL): 64 ≧ MIC > 16) | S. Aureus 33591 MRSA activity [2]: + (“+”: MIC (μg/mL): 64 ≧ MIC > 16) | E. Faecium 35667 activity [3]: + (“+”: MIC (μg/mL): 64 ≧ MIC > 16) | E. Faecium 51299 VanB activity (E. Faecium 51299 VanB): − (“−”: MIC (μg/mL): MIC > 64) | E. Fecalis 29212 activity [4]: − (“−”: MIC (μg/mL): MIC > 64)

CCCCCCCCCCCCC(N)C(=O)NC1C(CO)OCC(Nc2ccc(C(F)(F)F)cc2[N+](=O)[O-])C1O (stereo not shown) [Compound 197]
S. Aureus 25923 activity [1]: ++ (“++”: MIC (μg/mL): MIC ≦ 16) | S. Aureus 33591 MRSA activity [2]: + (“+”: MIC (μg/mL): 64 ≧ MIC > 16) | E. Faecium 35667 activity [3]: + (“+”: MIC (μg/mL): 64 ≧ MIC > 16) | E. Faecium 51299 VanB activity (E. Faecium 51299 VanB): + (“+”: MIC (μg/mL): 64 ≧ MIC > 16) | E. Fecalis 29212 activity [4]: + (“+”: MIC (μg/mL): 64 ≧ MIC > 16)

O=C(Nc1ccc(Cl)c(C(F)(F)F)c1)NC1COC(CO)C(n2c(NCc3ccc(Cl)cc3)nc3cc(C(F)(F)F)cc(Cl)c32)C1O (stereo not shown) [Compound 256]
S. Aureus 25923 activity [1]: − (“−”: MIC (μg/mL): MIC > 64) | S. Aureus 33591 MRSA activity [2]: − (“−”: MIC (μg/mL): MIC > 64) | E. Faecium 35667 activity [3]: − (“−”: MIC (μg/mL): MIC > 64) | E. Faecium 51299 VanB activity (E. Faecium 51299 VanB): ++ (“++”: MIC (μg/mL): MIC ≦ 16) | E. Fecalis 29212 activity [4]: ++ (“++”: MIC (μg/mL): MIC ≦ 16)

O=C(NC1C(CO)OCC(n2cnc3cc(C(F)(F)F)cc(Cl)c32)C1O)c1ccc(-c2ccccc2)cc1 (stereo not shown) [Compound 156]
S. Aureus 25923 activity [1]: + (“+”: MIC (μg/mL): 64 ≧ MIC > 16) | S. Aureus 33591 MRSA activity [2]: − (“−”: MIC (μg/mL): MIC > 64) | E. Faecium 35667 activity [3]: + (“+”: MIC (μg/mL): 64 ≧ MIC > 16) | E. Faecium 51299 VanB activity (E. Faecium 51299 VanB): − (“−”: MIC (μg/mL): MIC > 64) | E. Fecalis 29212 activity [4]: − (“−”: MIC (μg/mL): MIC > 64)

NC(Cc1ccc(-c2ccccc2)cc1)C(=O)Nc1nc2cc(C(F)(F)F)ccc2n1C1C(CO)OCC(NC(=O)Nc2ccc(Cl)c(C(F)(F)F)c2)C1O (stereo not shown) [Compound 237]
S. Aureus 25923 activity [1]: − (“−”: MIC (μg/mL): MIC > 64) | S. Aureus 33591 MRSA activity [2]: ++ (“++”: MIC (μg/mL): MIC ≦ 16) | E. Faecium 35667 activity [3]: − (“−”: MIC (μg/mL): MIC > 64) | E. Faecium 51299 VanB activity (E. Faecium 51299 VanB): − (“−”: MIC (μg/mL): MIC > 64) | E. Fecalis 29212 activity [4]: ++ (“++”: MIC (μg/mL): MIC ≦ 16)

Nc1nc2cc(C(F)(F)F)cc(Cl)c2n1C1COC(CO)C(NC(=O)C(N)Cc2ccc(-c3ccccc3)cc2)C1O (stereo not shown) [Compound 163]
S. Aureus 25923 activity [1]: + (“+”: MIC (μg/mL): 64 ≧ MIC > 16) | S. Aureus 33591 MRSA activity [2]: + (“+”: MIC (μg/mL): 64 ≧ MIC > 16) | E. Faecium 35667 activity [3]: − (“−”: MIC (μg/mL): MIC > 64) | E. Faecium 51299 VanB activity (E. Faecium 51299 VanB): − (“−”: MIC (μg/mL): MIC > 64) | E. Fecalis 29212 activity [4]: + (“+”: MIC (μg/mL): 64 ≧ MIC > 16)

CCCCCCCCCCCCC(N)C(=O)NC1C(CO)OCC(n2c(S)nc3cc(C(F)(F)F)ccc32)C1O (stereo not shown) [Compound 182]
S. Aureus 25923 activity [1]: ++ (“++”: MIC (μg/mL): MIC ≦ 16) | S. Aureus 33591 MRSA activity [2]: ++ (“++”: MIC (μg/mL): MIC ≦ 16) | E. Faecium 35667 activity [3]: ++ (“++”: MIC (μg/mL): MIC ≦ 16) | E. Faecium 51299 VanB activity (E. Faecium 51299 VanB): ++ (“++”: MIC (μg/mL): MIC ≦ 16) | E. Fecalis 29212 activity [4]: ++ (“++”: MIC (μg/mL): MIC ≦ 16)

NC(CC(=O)Nc1nc2cc(C(F)(F)F)ccc2n1C1C(CO)OCC(NC(=O)Nc2ccc(Cl)c(C(F)(F)F)c2)C1O)c1ccc(-c2ccccc2)cc1 (stereo not shown) [Compound 238]
S. Aureus 25923 activity [1]: − (“−”: MIC (μg/mL): MIC > 64) | S. Aureus 33591 MRSA activity [2]: ++ (“++”: MIC (μg/mL): MIC ≦ 16) | E. Faecium 35667 activity [3]: − (“−”: MIC (μg/mL): MIC > 64) | E. Faecium 51299 VanB activity (E. Faecium 51299 VanB): − (“−”: MIC (μg/mL): MIC > 64) | E. Fecalis 29212 activity [4]: ++ (“++”: MIC (μg/mL): MIC ≦ 16)
